Results taken from patent US9913870B2, “Method for stimulating AMP-activated protein kinase” (DHARMA BIOMEDICAL, LLC, priority 2012, dated 2018).
“Also recorded” adds a separate entry of the source.

Experiments:
3T3-L1 adipocytes = test: Glucose uptake in differentiated adipocytes; type: cell-based; details: 72 hours
Protocol: 3T3-LI preadipocytes were used for glucose uptake and they were differentiated in the same manner as for adipocyte staining. The differentiated adipocytes (0.5×10^6) were treated with increasing concentrations (2-100 μg/ml) of guggul extracts for 72 hours in DMEM medium containing 1 μM insulin. 2,4-Thiazolidinedione (0.005 μM-0.1 μM) was used as a positive control for comparison. After 72 hours, the medium was replaced with starving medium (DMEM without FBS) for 2 hours at 37° C. and then with 3 ml KRH buffer (136 mM NaCl, 4.7 mM KCl, 1.25 mM CaCl2, 1.25 mM Mg SO4, 10 mM Hepes, pH 7.4) with 1 uM insulin at 37° C. for 30 min. For glucose uptake, 4.5 mg/ml glucose was added into the KRH buffer and plates were incubated for another 15 min. The plates were washed 4 times with KRH buffer, cells were lysed with RIPA buffer (0.5 ml/plate). The protein concentration of the extract was estimated and 500 ug extract was used for glucose estimation using the assay kit from Sigma Chemical Co., MO. The absorbance of the reaction mixture was measured at 340 nm and glucose concentration calculated.

MMP-1 = MMP-1 expression ELISA in CCL-110 fibroblasts, with and without TNF-α; type: cell-based, human; parameters: MMP-1 expression compared to untreated CCL-110 cells: dose or concentration left out as unconfirmed; details: for MMP-1 protein expression: CCL-110 fibroblasts, 24 hours, 0-100 μg mL−1, without TNF-α
Protocol: CCL-110 skin fibroblast cells (10^5 mL^−1) were plated in 0.5% FBS containing EMEM for 24 hours for starvation and then treated with increasing concentrations of GU-TC7 and CoQ10 (0-100 μg mL^−1) for another 24 hours with and without the positive control ([…]). The medium was harvested and analyzed for MMP-1 (ng mL^−1) using the human MMP-1 ELISA kit from R&D Systems (Minneapolis, Minn., U.S.A.) according to the manufacturer's instructions. MMP-1 ELISA studies were repeated three times, with duplicate samples in each assay.

type I collagen = test: Collagen type I expression ELISA in CCL-110 fibroblasts; type: cell-based, human; details: 24 hours, increasing concentrations
Protocol: CCL-110 human fibroblast cells (0.5×10^6) were treated with increasing concentrations of GU-TC7 and CoQ10 for 24 hours in 0.5% starving medium. On the next day, the medium was completely removed, washed with phosphate buffered saline once and lysed with 500 μL of 0.05 M acetic acid (pH 2.8-3.0) and 50 μL of pepsin solution by incubating at 4° C. for 48 hours. Later, […] of 10×TBS (1 M Tris, 2 M NaCl, 50 mM CaCl2) was added, and pH was adjusted to 8.0 with 1 N NaOH, and 50 μL of human pancreatic elastase was added followed by the incubation for another 48 hours at 4° C. The cells were scraped and transferred to eppendorf tubes and centrifuged for 10 min at 10 000 rpm. The supernatant was transferred to a new eppendorf tube, and protein concentration of the extract was determined. The type I collagen in the extract was analyzed using the human type 1 collagen ELISA kit from MD Bio-products (St. Paul, […]., U.S.A.).

CCL-110 skin fibroblasts = test: Cytotoxicity assay (MTT, Cell Proliferation I kit); type: cell-based, human; details: up to 100 μg mL−1, 24 hours
Protocol: CCL-110 skin fibroblasts were cultured and plated at a density of 0.5×10^4 cells per well in 96-well tissue culture multiwell plates in EMEM medium. On the next day when cells were attached, they were treated with increasing concentrations (0-100 μg mL^−1) of GU-TC7 and CoQ10 (CoQ10 purchased from Sigma Chemical Co., St. Louis, Mo., U.S.A.) at 37° C. for 24 hours in a CO2 incubator maintained at 5% CO2 and 95% air. Cell proliferation assay was performed using the Cell Proliferation I kit (Roche Biochemicals, Indianapolis, Ind., U.S.A.) according to the manufacturer's protocol. The percentage survival of cells at each concentration was calculated based on the untreated control and plotted against drug concentrations (Cochrane, C. B. et al. “Anticancer effects of Annona glabra plant extracts in human leukemic cell lines” Anticancer Res., 2008, 28:965-971). Cytotoxicity assay was repeated three times with triplicate samples in each and mean values calculated.

human elastase = test: PMN-elastase expression ELISA in CCL-110 fibroblasts; type: cell-based; details: 24 hours
Protocol: CCL-110 skin fibroblast cells (10^6) were plated in EMEM containing 0.5% FBS and treated with increasing concentrations of GU-TC7 and CoQ10 for 24 hours in a CO2 incubator. The monolayer was lysed with 500 μL of RIPA buffer (50 mM Tris PH 7.4, 150 mM NaCl, 0.1% SDS, 0.5% Sodium deoxycholate, 1% Triton X-100 with one tablet for 25 mL of buffer) and protein concentration of the cellular extract was determined. Cellular extract (100 μg protein) was analyzed for the expression of human elastase using the PMN-Elastase ELISA kit form Alpco Immunoassays (Salem, N.H., U.S.A.).

HSP70 = HSP70 expression ELISA in Menadione-stressed HepG2 cells; type: cell-based, human; details: 50 μM, 3 hours
Protocol: A human liver cell line (HepG2) was used to study the expression of HSP70 in GU-MCT treated cells. The cells (2×10^6/4 ml) were grown in Eagles minimal essential medium and treated with 50 μM Menadione (Vitamin K analogue) for 3 hours in order to induce stress in the presence or absence of increasing concentrations of GU-MCT (0-100 μg/ml). The cells were harvested by scraping and cell lysate prepared by homogenizing cells in 0.5 ml of lysis buffer (R&D systems, Minneapolis, Minn.). Protein concentration of cell lysate was estimated and 10 μg protein was used for ELISA. The ELISA kit from R&D systems, MN was used to analyze the HSP70 protein expression (pg/ml) in the cell extract. The percentage of change in HSP70 expression was calculated based on the expression in untreated sample (100%).

HepG2 cells = test: HDL and LDL/VLDL cholesterol quantification in HepG2 cells; type: cell-based, human
Protocol: HepG2 cells (2×106) were incubated with increasing concentrations of Glucodox (0-100 ug/ml) for 72 hours at 37° C. The cells, after washing with PBS, were lysed with methanol:choloroform […] solution. Both HDL an LDL fractions were separated and estimated using the HDL and LDL/VLDL quantification kit (MBL International Corporation, MA).

Compound: O=C1CSC(=O)N1 [2,4 Thiazolidinedione, 2,4-Thiazolidinedione]
- glucose uptake (insulin sensitivity) (3T3-L1 adipocytes): more potent than the guggul extracts

Compound: COC1=C(OC)C(=O)C(C/C=C(\C)CC/C=C(\C)CC/C=C(\C)CC/C=C(\C)CC/C=C(\C)CC/C=C(\C)CC/C=C(\C)CC/C=C(\C)CC/C=C(\C)CCC=C(C)C)=C(C)C1=O [CoQ10, coenzyme Q10]
- MMP-1 protein expression (MMP-1): inhibits MMP-1 at 5 μg mL^−1, the inhibition rate remained almost constant with increasing concentrations
- MMP-1 protein expression (MMP-1; listed as Coenzyme Q10): inhibition of MMP-1 expression
- type I collagen synthesis (type I collagen): inhibitory trend was noticed with increasing doses
- type I collagen synthesis (type I collagen; listed as Coenzyme Q10): enhanced synthesis of type I collagen
- cytotoxic effects on CCL-110 skin fibroblasts (CCL-110 skin fibroblasts): no cytotoxic effects
- cytotoxic effects on CCL-110 skin fibroblasts (CCL-110 skin fibroblasts; listed as Coenzyme Q10): little cytotoxicity
- human elastase expression (human elastase): no such inhibition was evident; also recorded: no inhibition of elastase at any evaluated concentration

Compound: CC1=CC(=O)c2ccccc2C1=O [Menadione]
- down regulation of HSP70 expression (HSP70): 40%

Compound: CC[C@H](C)C(=O)O[C@H]1CCC=C2C=C[C@H](C)[C@H](CC[C@@H]3C[C@@H](O)CC(=O)O3)[C@H]21 [Mevastatin]
- HDL in cellular extracts and cell culture medium (HepG2 cells): not induced

Compound: TNF-α
- MMP-1 expression compared to untreated CCL-110 cells (MMP-1; TNF-α treatment): three times
